Test results reported in paper PMC3726442 (PLoS ONE, 2013).
Blank lines part the entries; values can stand above or below the molecule they belong to.

Assay: Plasma concentrations of tamoxifen and its metabolites in breast cancer patients on tamoxifen, by HPLC-tandem mass spectrometry
[1] = all samples analyzed, n = 125, before daily 20 mg TAM dose

From the text: One hundred and thirty five Caucasian patients of Spanish descent recently diagnosed with BC were recruited from the center Fundación Tejerina-Centro de Patología de la Mama (Madrid). Premenopausal and postmenopausal women were enrolled when started on TAM as standard adjuvant therapy after undergoing primary surgery, radiation and adjuvant chemotherapy. Patients were excluded if they had started TAM therapy simultaneously with either adjuvant chemotherapy or adjuvant radiation therapy (or both) or if they were undergoing other adjuvant endocrine therapies. Patients who were pregnant or breast-feeding were also excluded from the study. […] Blood samples were collected within 3 to 60 months of initiating TAM treatment.
Venous blood was collected from all 135 subjects before taking their daily 20- mg dose of TAM. Ten milliliters of heparin plasma were separated by centrifugation and immediately stored at −20°C until analysis. In addition, one milliliter of an EDTA blood sample was taken for subsequent DNA extraction and genotyping. DNA was isolated from peripheral leukocytes using a QIAamp DNA Blood Mini Kit® (Qiagen, Madrid, Spain) according to the manufacturer’s instructions. The DNA concentration was determined and adjusted to 2–20 ng/ µL.
TAM and its metabolites were separated and quantified by high-pressure liquid chromatography-tandem mass spectrometry using an Agilent HPLC 1200 system. HPLC experiments were performed using a binary pump G1312A, a G1316A column oven, G1379B degasser and an automatic injector H-ALS G1367B. Mobile phase A and phase B consisted of 0.1% formic acid in water and acetonitrile, respectively. Mobile phases A and B were pumped through a ZORBAX Eclipse XDB-C18 column (150 mm×2.1 mm I.D., 3.5 µm, Agilent USA) at a flow rate of 0.2 mL/min using the gradient shown in Table 1. Separation was conducted at 30°C. 15- µL aliquots were injected and the autosampler needle was rinsed in acetonitrile/water solution (1∶1). The total run time was 20 min. During the first 4.0 and last 2.0 min, the eluate was removed using a divert valve to avoid endogenous compounds entering the mass spectrometer.
As a detector, we used an A 6410 Triple Quadrupole mass spectrometer (Agilent Technologies, USA) equipped with a heated electrospray ionization source (Thermo Fisher Scientific, Waltham, MA, USA) operating in positive ion mode. For quantification, multiple reaction monitoring (MRM) chromatograms were acquired using Mass Hunter software version B.01.04 (Agilent Technologies, USA). Positive ions were created at atmospheric pressure. Quadrupoles operated at unit resolution (0.7 Da).
A 300- µL volume of 1% formic acid in acetonitrile containing internal standards was added to a 100- µL serum aliquot. After vortexing and centrifugation, the clear supernatant was transferred to a HybridSPE column (Supelco) and the eluents stored at 2–8°C until analysis. Samples were analyzed in triplicate.
Descriptive statistics were calculated using standard methods. Metabolic ratios were calculated as the concentration of substrate/concentration of metabolite. The non-normal distribution of data was confirmed by the Kolmogorov-Smirnov test. Levels of TAM, metabolites and ratios between genotype groups were compared using Wilcoxon-Mann-Whitney or Kruskal-Wallis tests. All statistical tests (two-sided) were performed using SPSS software (version 18.0 SPSS, Chicago, IL). Significance was set at a p<0.05.

median plasma concentration [1]: 6.75 ng/mL
Molecule: 4-hydroxy-tamoxifen [4-OH-tamoxifen]

plasma concentration, mean ±SD (genotype CYP2D6 I/I, n = 1): 130.54 ± 0.00 ng/mL
plasma concentration, median (genotype CYP2D6 I/I, n = 1): 130.54 ng/mL
plasma concentration, range (genotype CYP2D6 I/I, n = 1): (130.54–130.54) ng/mL
plasma concentration, range (genotype CYP2D6 I/P, n = 8): (88.08–289.96) ng/mL
plasma concentration, mean ±SD (genotype CYP2D6 P/P, n = 2): 278.43 ± 132.13 ng/mL
plasma concentration, median (genotype CYP2D6 P/P, n = 2): 278.43 ng/mL
plasma concentration, range (genotype CYP2D6 P/P, n = 2): (185.00–371.83) ng/mL
plasma concentration, mean ±SD (genotype CYP2D6 wt/I, n = 4): 208.48 ± 66.06 ng/mL
plasma concentration, range (genotype CYP2D6 wt/I, n = 4): (151.94–302.03) ng/mL
plasma concentration, mean ±SD (genotype CYP2D6 wt/P, n = 26): 209.57 ± 121.53 ng/mL
plasma concentration, range (genotype CYP2D6 wt/P, n = 26): (89.79–576.23) ng/mL
plasma concentration, mean ±SD (genotype CYP2D6 wt/wt, n = 78): 203.05 ± 80.53 ng/mL
plasma concentration, range (genotype CYP2D6 wt/wt, n = 78): (77.10–573.83) ng/mL
plasma concentration, range (genotype CYP2D6 wtxN/P, n = 2): (102.91–264.41) ng/mL
plasma concentration, mean ±SD (genotype CYP3A4 wt/*1B, n = 3): 260.69 ± 136.19 ng/mL
plasma concentration, median (genotype CYP3A4 wt/*1B, n = 3): 261.00 ng/mL
plasma concentration, range (genotype CYP3A4 wt/*1B, n = 3): (124.35–396.73) ng/mL
plasma concentration, mean ±SD (genotype CYP3A4 wt/*3, n = 2): 212.83 ± 68.55 ng/mL
plasma concentration, median (genotype CYP3A4 wt/*3, n = 2): 212.83 ng/mL
plasma concentration, range (genotype CYP3A4 wt/*3, n = 2): (164.35–261.30) ng/mL
plasma concentration, mean ±SD (genotype CYP3A4 wt/*17, n = 9): 230.28 ± 153.17 ng/mL
plasma concentration, range (genotype CYP3A4 wt/*17, n = 9): (88.08–573.83) ng/mL
plasma concentration, mean ±SD (genotype CYP3A4 wt/wt, n = 107): 198.93 ± 89.59 ng/mL
plasma concentration, range (genotype CYP3A4 wt/wt, n = 107): (77.10–576.23) ng/mL
plasma concentration, mean ±SD (genotype CYP3A5 *3/*3, n = 117): 204.98 ± 96.33 ng/mL
plasma concentration, range (genotype CYP3A5 *3/*3, n = 117): (77.10–576.23) ng/mL
plasma concentration, mean ±SD (genotype CYP3A5 wt/*3, n = 6): 164.16 ± 51.72 ng/mL
plasma concentration, median (genotype CYP3A5 wt/*3, n = 6): 160.17 ng/mL
plasma concentration, range (genotype CYP3A5 wt/*3, n = 6): (112.43–235.19) ng/mL
plasma concentration, mean ±SD (genotype SULT1A1 *2/*2, n = 15): 205.87 ± 101.52 ng/mL
plasma concentration, median (genotype SULT1A1 *2/*2, n = 15): 161.90 ng/mL
plasma concentration, range (genotype SULT1A1 *2/*2, n = 15): (102.43–396.73) ng/mL
plasma concentration, mean ±SD (genotype SULT1A1 wt/*2, n = 46): 204.84 ± 107.12 ng/mL
plasma concentration, range (genotype SULT1A1 wt/*2, n = 46): (77.10–573.83) ng/mL
plasma concentration, mean ±SD (genotype SULT1A1 wt/wt, n = 60): 200.92 ± 86.14 ng/mL
plasma concentration, range (genotype SULT1A1 wt/wt, n = 60): (88.08–576.23) ng/mL
plasma concentration, range (genotype SULT1A2 *2/*2, n = 16): (95.67–396.73) ng/mL
plasma concentration, mean ±SD (genotype SULT1A2 *2/*3, n = 13): 222.50 ± 93.29 ng/mL
plasma concentration, median (genotype SULT1A2 *2/*3, n = 13): 240.78 ng/mL
plasma concentration, range (genotype SULT1A2 *2/*3, n = 13): (112.43–371.37) ng/mL
plasma concentration, median (genotype SULT1A2 *3/*3, n = 5): 164.35 ng/mL
plasma concentration, range (genotype SULT1A2 *3/*3, n = 5): (122.20–302.03) ng/mL
plasma concentration, mean ±SD (genotype SULT1A2 wt/*2, n = 33): 227.33 ± 131.55 ng/mL
plasma concentration, range (genotype SULT1A2 wt/*2, n = 33): (88.08–576.23) ng/mL
plasma concentration, range (genotype SULT1A2 wt/*3, n = 16): (89.79–378.32) ng/mL
plasma concentration, range (genotype SULT1A2 wt/wt, n = 38): (77.10–375.04) ng/mL
plasma concentration, mean ±SD (genotype SULT1E1 *2/*2, n = 5): 232.36 ± 83.23 ng/mL
plasma concentration, median (genotype SULT1E1 *2/*2, n = 5): 202.74 ng/mL
plasma concentration, range (genotype SULT1E1 *2/*2, n = 5): (166.20–375.04) ng/mL
plasma concentration, mean ±SD (genotype SULT1E1 wt/*2, n = 28): 200.49 ± 77.50 ng/mL
plasma concentration, range (genotype SULT1E1 wt/*2, n = 28): (77.10–368.73) ng/mL
plasma concentration, mean ±SD (genotype SULT1E1 wt/wt, n = 88): 202.17 ± 101.97 ng/mL
plasma concentration, range (genotype SULT1E1 wt/wt, n = 88): (89.79–576.23) ng/mL
Molecule: CC/C(=C(\c1ccccc1)c1ccc(OCCN(C)C)cc1)c1ccccc1 [Tamoxifen, reference compound]

mean plasma concentration (±SD) [1]: 50.88 ± 23.09 ng/mL
plasma concentration, mean ±SD (genotype CYP2D6 wt/P, n = 26): 54.04 ± 25.63 ng/mL
plasma concentration, mean ±SD (genotype SULT1A1 *2/*2, n = 15): 56.02 ± 24.50 ng/mL
plasma concentration, median (genotype SULT1A1 *2/*2, n = 15): 59.27 ng/mL
plasma concentration, range (genotype SULT1A1 *2/*2, n = 15): (15.69–99.37) ng/mL
plasma concentration, mean ±SD (genotype SULT1A1 wt/*2, n = 46): 51.02 ± 27.88 ng/mL
plasma concentration, median (genotype SULT1A1 wt/*2, n = 46): 41.84 ng/mL
plasma concentration, range (genotype SULT1A1 wt/*2, n = 46): (17.43–142.97) ng/mL
plasma concentration, mean ±SD (genotype SULT1A1 wt/wt, n = 60): 48.69 ± 18.93 ng/mL
plasma concentration, range (genotype SULT1A1 wt/wt, n = 60): (15.69–106.35) ng/mL
plasma concentration, mean ±SD (genotype SULT1A2 *2/*2, n = 16): 47.18 ± 20.97 ng/mL
plasma concentration, median (genotype SULT1A2 *2/*2, n = 16): 50.56 ng/mL
plasma concentration, range (genotype SULT1A2 *2/*2, n = 16): (15.69–81.94) ng/mL
plasma concentration, mean ±SD (genotype SULT1A2 *2/*3, n = 13): 46.94 ± 17.33 ng/mL
plasma concentration, range (genotype SULT1A2 *2/*3, n = 13): (17.43–90.66) ng/mL
plasma concentration, mean ±SD (genotype SULT1A2 *3/*3, n = 5): 38.35 ± 10.17 ng/mL
plasma concentration, range (genotype SULT1A2 *3/*3, n = 5): (26.15–50.56) ng/mL
plasma concentration, mean ±SD (genotype SULT1A2 wt/*2, n = 33): 60.87 ± 31.96 ng/mL
plasma concentration, median (genotype SULT1A2 wt/*2, n = 33): 54.04 ng/mL
plasma concentration, range (genotype SULT1A2 wt/*2, n = 33): (20.53–142.97) ng/mL
plasma concentration, mean ±SD (genotype SULT1A2 wt/*3, n = 16): 47.29 ± 17.70 ng/mL
plasma concentration, median (genotype SULT1A2 wt/*3, n = 16): 46.20 ng/mL
plasma concentration, range (genotype SULT1A2 wt/*3, n = 16): (19.18–83.68) ng/mL
plasma concentration, mean ±SD (genotype SULT1A2 wt/wt, n = 38): 47.65 ± 19.19 ng/mL
plasma concentration, median (genotype SULT1A2 wt/wt, n = 38): 42.71 ng/mL
plasma concentration, range (genotype SULT1A2 wt/wt, n = 38): (15.69–99.37) ng/mL
plasma concentration, mean ±SD (genotype SULT1E1 *2/*2, n = 5): 49.86 ± 8.94 ng/mL
plasma concentration, mean ±SD (genotype SULT1E1 wt/*2, n = 28): 47.65 ± 19.38 ng/mL
plasma concentration, median (genotype SULT1E1 wt/*2, n = 28): 47.94 ng/mL
plasma concentration, range (genotype SULT1E1 wt/*2, n = 28): (20.53–90.66) ng/mL
plasma concentration, mean ±SD (genotype SULT1E1 wt/wt, n = 88): 51.48 ± 25.13 ng/mL
plasma concentration, range (genotype SULT1E1 wt/wt, n = 88): (15.69–142.97) ng/mL
Molecule: CC/C(=C(\c1ccccc1)c1ccc(OCC[N+](C)(C)[O-])cc1)c1ccccc1 [Tamoxifen-N-oxide, tamoxifen-N-oxide]
